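48-hour exposure; five concentrations; linearly interpolated endpoints. The concentration for 50% growth inhibition is given as GI50.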 The source made the active and inactive calls. No stated cut-off is given here; in the data, active = GI50 up to about 1.1 µM and inactive = higher.
Tests used:
Assay in all cases: inhibition of tumour cell growth, NCI panel, 48 h
[1] = test system: CAKI-1
[2] = test system: RXF 393
[3] = test system: OVCAR-4
[4] = test system: OVCAR-8
[5] = test system: OVCAR-3
[6] = test system: SNB-75
[7] = test system: DU-145
[8] = test system: NCI/ADR-RES
[9] = test system: OVCAR-5
[10] = test system: SNB-19
[11] = test system: M14
[12] = test system: SF-268
[13] = test system: HCC 2998
[14] = test system: ACHN
[15] = test system: HL-60
[16] = test system: A498
[17] = test system: MDA-MB-435
[18] = test system: PC-3
[19] = test system: NCI-H460
[20] = test system: COLO 205

Row | Compound | GI50 [1] | GI50 [2] | GI50 [3] | GI50 [4] | GI50 [5] | GI50 [6] | GI50 [7] | GI50 [8] | GI50 [9] | GI50 [10] | GI50 [11] | GI50 [12] | GI50 [13] | GI50 [14] | GI50 [15] | GI50 [16] | GI50 [17] | GI50 [18] | GI50 [19] | GI50 [20]
1 | O/N=C(/CC(O)(C(F)(F)F)C(F)(F)F)c1ccccc1 | > 10 µM (inactive) | > 10 µM (inactive) | > 10 µM (inactive) | > 10 µM (inactive) | > 10 µM (inactive) | > 10 µM (inactive) | > 10 µM (inactive) | > 10 µM (inactive) | > 10 µM (inactive) | > 10 µM (inactive) | > 10 µM (inactive) | > 10 µM (inactive) | > 10 µM (inactive) | > 10 µM (inactive) | > 10 µM (inactive) | > 10 µM (inactive) | > 10 µM (inactive) | > 10 µM (inactive) | > 10 µM (inactive) | > 10 µM (inactive)
2 | O=C1NC(=S)NC(=O)C1=Cc1cccc2cc3ccccc3cc12 | 2.03 µM (inactive) | 1.66 µM (inactive) | 2.28 µM (inactive) | 1.86 µM (inactive) | 1.76 µM (inactive) | 1.59 µM (inactive) | 1.47 µM (inactive) | 2.22 µM (inactive) | 2.3 µM (inactive) | 2.28 µM (inactive) | 2.24 µM (inactive) | 2.06 µM (inactive) | 2.04 µM (inactive) | 1.95 µM (inactive) | 1.71 µM (inactive) | 1.97 µM (inactive) | 2.12 µM (inactive) | 1.74 µM (inactive) | 2.12 µM (inactive) | 1.88 µM (inactive)
3 | OCCNc1ncnc2c1ncn2C1OC(CO)C(O)C1O (stereo not given) | > 100 µM (inactive) | > 100 µM (inactive) | > 100 µM (inactive) | 35 µM (inactive) | 52.1 µM (inactive) | > 100 µM (inactive) | 19.3 µM (inactive) | 50.6 µM (inactive) | > 100 µM (inactive) | > 100 µM (inactive) | > 100 µM (inactive) | 91.6 µM (inactive) | 64.9 µM (inactive) | 71.3 µM (inactive) | 33.1 µM (inactive) | 57.7 µM (inactive) | > 100 µM (inactive) | 47.4 µM (inactive) | 87.9 µM (inactive) | > 100 µM (inactive)
4 | Cc1cc(S(=O)(=O)Nc2n[nH]c(Nc3ccccc3)n2)c(S)cc1Cl | > 10 µM (inactive) | > 10 µM (inactive) | > 10 µM (inactive) | > 10 µM (inactive) | > 10 µM (inactive) | > 10 µM (inactive) | > 10 µM (inactive) | > 10 µM (inactive) | > 10 µM (inactive) | > 10 µM (inactive) | > 10 µM (inactive) | > 10 µM (inactive) | > 10 µM (inactive) | > 10 µM (inactive) | > 10 µM (inactive) | > 10 µM (inactive) | > 10 µM (inactive) | > 10 µM (inactive) | > 10 µM (inactive) | > 10 µM (inactive)
5 | c1ccc2cc(CN3CCC(C4CCN(Cc5ccc6ccccc6c5)CC4)CC3)ccc2c1 | 5.53 µM (inactive) | 2.74 µM (inactive) | 6.21 µM (inactive) | 3.92 µM (inactive) | 4.59 µM (inactive) | 2.67 µM (inactive) | 11.8 µM (inactive) | 6.79 µM (inactive) | 10.1 µM (inactive) | 11.5 µM (inactive) | 1.91 µM (inactive) | 8.53 µM (inactive) | 1.1 µM (active) | 4.99 µM (inactive) | 1.53 µM (inactive) | 10.8 µM (inactive) | 1.75 µM (inactive) | 9.42 µM (inactive) | 3.11 µM (inactive) | 1.76 µM (inactive)
6 | CSc1c(CC(=O)Nc2ccc(Cl)cc2)n(Cc2ccccc2)c2ccccc12 | 22.8 µM (inactive) | 12.8 µM (inactive) | 11.7 µM (inactive) | 12.3 µM (inactive) | > 100 µM (inactive) | 13 µM (inactive) | 38.5 µM (inactive) | 19.4 µM (inactive) | 29.6 µM (inactive) | 46.9 µM (inactive) | 58.2 µM (inactive) | 12.9 µM (inactive) | 19.5 µM (inactive) | 24.7 µM (inactive) | > 100 µM (inactive) | 8.26 µM (inactive) | 49.3 µM (inactive) | 11 µM (inactive) | 25.5 µM (inactive) | 44.6 µM (inactive)
7 | CC(=O)NCCC1CN(C(=O)/C=C/I)c2ccccc21 (stereo not given) | 4.75 µM (inactive) | 5.21 µM (inactive) | 1.96 µM (inactive) | 9.79 µM (inactive) | 5.86 µM (inactive) | 16.8 µM (inactive) | 15.7 µM (inactive) | 10.1 µM (inactive) | 15.8 µM (inactive) | 14.8 µM (inactive) | 3.37 µM (inactive) | 9.08 µM (inactive) | 15.9 µM (inactive) | 6.59 µM (inactive) | 3.17 µM (inactive) | 6.98 µM (inactive) | 5.93 µM (inactive) | 8.81 µM (inactive) | 4.62 µM (inactive) | 3.75 µM (inactive)
8 | CC12C=CC(=O)C=C1CCC1C3CCC(O)(C(=O)CO)C3(C)CC(O)C12F (stereo not given) | > 100 µM (inactive) | > 100 µM (inactive) | > 100 µM (inactive) | > 100 µM (inactive) | > 100 µM (inactive) | > 100 µM (inactive) | > 100 µM (inactive) | > 100 µM (inactive) | > 76.4 µM (inactive) | > 100 µM (inactive) | > 100 µM (inactive) | > 100 µM (inactive) | > 100 µM (inactive) | > 100 µM (inactive) | > 100 µM (inactive) | > 100 µM (inactive) | > 100 µM (inactive) | > 100 µM (inactive) | > 100 µM (inactive) | > 100 µM (inactive)
9 | CCOC(=O)C1=C(C(=O)OCC)SC2(S1)C(C(=O)OCC)=C(C(=O)OCC)Sc1c2ssc1=O | 2.42 µM (inactive) | 1.03 µM (active) | 1.27 µM (inactive) | 1.6 µM (inactive) | 1.69 µM (inactive) | 1.85 µM (inactive) | 0.857 µM (active) | 2.71 µM (inactive) | 4.7 µM (inactive) | 3.84 µM (inactive) | 2.04 µM (inactive) | 1.97 µM (inactive) | 2.42 µM (inactive) | 1.72 µM (inactive) | 0.279 µM (active) | 6.15 µM (inactive) | 1.99 µM (inactive) | 1.44 µM (inactive) | 8.51 µM (inactive) | 1.84 µM (inactive)
10 | COc1ccc(Cl)cc1NC(=O)O/N=C(\Cl)C(C)C | 1.82 µM (inactive) | 3.76 µM (inactive) | 17.2 µM (inactive) | 15 µM (inactive) | 6 µM (inactive) | 16.4 µM (inactive) | 19.3 µM (inactive) | 5.27 µM (inactive) | 18.4 µM (inactive) | 29.5 µM (inactive) | 3.28 µM (inactive) | 21.5 µM (inactive) | 16.4 µM (inactive) | 2.12 µM (inactive) | 2.16 µM (inactive) | 21.5 µM (inactive) | 18.3 µM (inactive) | 17.4 µM (inactive) | 17.1 µM (inactive) | 2.19 µM (inactive)
11 | CO[C@H]1[C@@H](O)[C@@H](C)O[C@@H](O[C@H]2CC[C@@]3(C)[C@H](CC[C@@H]4[C@@H]3CC[C@]3(C)[C@@H](C5=CC(=O)OC5)CC[C@]43O)C2)[C@@H]1O [ODOROSIDE H] | 0.0048 µM (active) | 0.00394 µM (active) | 0.00583 µM (active) | 0.00661 µM (active) | 0.00531 µM (active) | 0.00601 µM (active) | 0.00377 µM (active) | 0.00548 µM (active) | 0.0321 µM (active) | 0.0215 µM (active) | 0.0137 µM (active) | 0.00422 µM (active) | 0.0149 µM (active) | 0.00304 µM (active) | 0.00378 µM (active) | 0.0787 µM (active) | 0.00908 µM (active) | 0.00426 µM (active) | 0.003 µM (active) | 0.0366 µM (active)
12 | O=c1[nH]nc(-c2ccccc2)n1/N=C/c1ccncc1 | > 100 µM (inactive) | 62.5 µM (inactive) | > 100 µM (inactive) | > 100 µM (inactive) | > 100 µM (inactive) | 81.3 µM (inactive) | > 100 µM (inactive) | > 100 µM (inactive) | 37.7 µM (inactive) | > 100 µM (inactive) | > 100 µM (inactive) | > 100 µM (inactive) | > 100 µM (inactive) | > 100 µM (inactive) | > 100 µM (inactive) | 24.9 µM (inactive) | > 100 µM (inactive) | > 100 µM (inactive) | > 100 µM (inactive) | 54 µM (inactive)

From ChEMBL document CHEMBL1201862, “PubChem BioAssay data set” (2004)
